Measured values from patent US20230124862A1, “BISMUTH THIOL COMPOUNDS AND COMPOSITIONS AND METHODS OF TREATING MICROBIAL CO-INFECTIONS” (Microbion Corporation, priority 2020, published 2023).
“And” between values parts separate entries of the source, which are not always exact repeats. Equal entries are not always repeated. Where two headings read alike, the source gives them in different places.

Columns and labels:
[1] = assay type: in vivo, beagle dogs; conditions: dog, per animal and Grp Avg, sampling times not given
Description: Once adequately conditioned to the restraint device and face-masks, the animals are individually exposed to the test article aerosols. Animals receive a single face-mask inhalation exposure in a ramp study design to test article aerosols for up to 60 min. Animal observations during and post exposure determine the tolerance of inhaled BisEDT aerosols.
Blood Collections and Bioanalytical Analysis: Blood are collected for pharmacokinetic (PK) analysis prior to exposure, then at 4 hr (±5 min) post exposure, and again on Day 1, Day 2, Day 7 (pre- and 4 hr (±5 min)-post exposure), Day 8, Day 9, Day 10, Day 11, Day 12, Day 13, and Day 14. A total of 0.25 mL is collected at each timepoint. No PK blood is collected from the vehicle control (Group 1) animals; only animals exposed to BisEDT have blood collected for PK analysis. Collected samples are flash frozen without processing for shipment to Medpace for bioanalytical analysis. Additional blood is collected from all animals in all groups for hematology (1 mL) and clinical chemistry (1 mL) at baseline, Day 7 (pre-exposure), and again at euthanasia. Blood (2-2 mL) is collected from all animals at necropsy for coagulation analysis (d-Dimer, fibrinogen, PT, and PTT).
For hematology analyses, whole blood (1 ml) will be collected with vacutainers containing K3EDTA as an anticoagulant.
Hematology samples are analyzed by automated (ADVIA™ 120 Hematology System, Siemens Medical Solutions Diagnostics, Tarrytown, N.Y.) analyses. Disposition will be recorded on the sample processing form.

[2] = assay type: in vivo, patients; conditions: end of treatment (Week 2-3), test of cure (Week 4-5), end of study (Week 8-9)
[3] = Group 2 (55-56 ug/kg lung deposited)
[4] = Group 4 (176-197 ug/kg lung deposited)

## C1C[S][Bi]([S]CC[S][Bi]2[S]CC[S]2)[S]1 [BisEDT, Bismuth-1,2-ethanedithiol]
[1]; [3]
  BASO: 0.12 ^3/uL (2×) and 0.15 ^3/uL and 0.08 ^3/uL (2×) and 0.11 ^3/uL and 0.10 ^3/uL and 0.07 ^3/uL and 0.13 ^3/uL
  EOS: 0.30 ^3/uL and 0.45 ^3/uL and 0.39 ^3/uL and 0.14 ^3/uL and 0.09 ^3/uL and 0.06 ^3/uL and 0.22 ^3/uL and 0.27 ^3/uL and 0.23 ^3/uL
  HCT: 45.8% and 43.1% and 41.8% and 49.0% and 43.7% and 42.9% and 47.4% and 43.4% and 42.4%
  HGB: 15.6 g/dL and 15.0 g/dL (3×) and 14.2 g/dL and 16.4 g/dL and 14.3 g/dL (2×) and 16.0 g/dL
  LUC: 0.01 ^3/uL (5×) and 0.02 ^3/uL (4×)
  LYMP: 2.81 ^3/uL and 2.73 ^3/uL and 2.09 ^3/uL and 2.27 ^3/uL and 2.82 ^3/uL and 2.61 ^3/uL and 2.54 ^3/uL and 2.78 ^3/uL and 2.35 ^3/uL
  MCH: 22.8 pg (2×) and 23.2 pg (2×) and 22.7 pg and 22.3 pg (2×) and 21.9 pg and 23.0 pg
  MCHC: 34.1 g/dL (2×) and 34.9 g/dL and 33.4 g/dL and 34.4 g/dL and 33.2 g/dL and 33.8 g/dL and 34.7 g/dL and 33.7 g/dL
  MCV: 67.0 fL and 66.4 fL and 66.5 fL and 69.5 fL and 64.8 fL and 66.0 fL and 68.3 fL and 65.6 fL and 66.3 fL
  MONO: 0.63 ^3/uL and 0.67 ^3/uL and 0.53 ^3/uL and 0.50 ^3/uL and 0.51 ^3/uL (2×) and 0.57 ^3/uL and 0.59 ^3/uL and 0.52 ^3/uL
  NEUT: 5.31 ^3/uL and 5.11 ^3/uL and 2.88 ^3/uL and 3.96 ^3/uL and 4.26 ^3/uL and 4.83 ^3/uL and 4.64 ^3/uL and 4.69 ^3/uL and 3.86 ^3/uL
  PLT: 197 ^3/uL and 166 ^3/uL and 161 ^3/uL and 206 ^3/uL and 294 ^3/uL and 304 ^3/uL and 201.5 ^3/uL and 230.0 ^3/uL and 232.5 ^3/uL
  RBC: 6.83 ^6/uL and 6.49 ^6/uL and 6.28 ^6/uL and 7.05 ^6/uL and 6.74 ^6/uL and 6.50 ^6/uL and 6.94 ^6/uL and 6.62 ^6/uL and 6.39 ^6/uL
  RET %: 0.34% and 0.55% and 0.60% and 0.65% and 0.25% and 0.31% and 0.50% and 0.40% and 0.46%
  WBC: 9.18 ^3/uL and 9.13 ^3/uL and 5.99 ^3/uL and 6.99 ^3/uL and 7.77 ^3/uL and 8.10 ^3/uL and 8.09 ^3/uL and 8.45 ^3/uL and 7.05 ^3/uL
[1]; [4]
  BASO: 0.07 ^3/uL (3×) and 0.04 ^3/uL (2×) and 0.09 ^3/uL (3×) and 0.06 ^3/uL and 0.08 ^3/uL (2×) and 0.05 ^3/uL and 0.10 ^3/uL (3×)
  EOS: 0.48 ^3/uL and 0.50 ^3/uL and 0.35 ^3/uL and 0.95 ^3/uL and 0.77 ^3/uL and 0.47 ^3/uL and 0.72 ^3/uL and 0.64 ^3/uL and 0.41 ^3/uL and 0.18 ^3/uL and 0.13 ^3/uL and 0.19 ^3/uL (2×) and 0.21 ^3/uL and 0.17 ^3/uL
  HCT: 42.7% and 47.5% and 45.4% and 41.9% and 50.6% and 47.6% and 42.30% and 49.05% and 46.50% and 39.8% and 40.7% and 37.1% and 44.2% and 38.45% and 42.45%
  HGB: 14.8 g/dL and 16.0 g/dL and 14.6 g/dL and 14.7 g/dL and 16.6 g/dL and 15.4 g/dL and 14.75 g/dL and 16.30 g/dL and 15.00 g/dL and 13.7 g/dL and 13.8 g/dL and 12.8 g/dL and 14.3 g/dL and 13.25 g/dL and 14.05 g/dL
  LUC: 0.01 ^3/uL (7×) and 0.02 ^3/uL (8×)
  LYMP: 2.68 ^3/uL and 3.18 ^3/uL and 2.78 ^3/uL (2×) and 2.88 ^3/uL and 3.04 ^3/uL and 2.82 ^3/uL and 3.11 ^3/uL and 2.80 ^3/uL and 2.46 ^3/uL and 2.59 ^3/uL and 2.32 ^3/uL and 2.87 ^3/uL and 2.39 ^3/uL and 2.73 ^3/uL
  MCH: 23.0 pg and 23.4 pg and 22.9 pg (2×) and 22.8 pg and 23.1 pg and 22.90 pg (2×) and 23.25 pg and 24.1 pg and 20.9 pg and 21.0 pg and 24.2 pg and 22.55 pg (2×)
  MCHC: 34.7 g/dL and 33.6 g/dL and 32.2 g/dL and 35.2 g/dL and 32.8 g/dL and 32.4 g/dL (2×) and 34.95 g/dL and 33.20 g/dL (2×) and 32.30 g/dL and 34.4 g/dL and 34.0 g/dL and 34.6 g/dL and 34.50 g/dL
  MCV: 66.3 fL and 69.7 fL and 71.3 fL and 64.8 fL and 70.4 fL and 70.9 fL and 65.55 fL and 70.05 fL and 71.10 fL and 70.1 fL and 61.6 fL and 60.8 fL and 74.7 fL and 65.45 fL and 68.15 fL
  MONO: 0.39 ^3/uL (2×) and 0.37 ^3/uL (2×) and 0.49 ^3/uL and 0.50 ^3/uL (2×) and 0.44 ^3/uL (2×) and 0.38 ^3/uL and 0.73 ^3/uL and 0.45 ^3/uL and 0.61 ^3/uL and 0.59 ^3/uL and 0.56 ^3/uL
  NEUT: 4.61 ^3/uL and 5.96 ^3/uL (2×) and 6.30 ^3/uL and 5.98 ^3/uL and 5.95 ^3/uL and 6.74 ^3/uL and 5.30 ^3/uL and 6.52 ^3/uL and 6.73 ^3/uL and 4.11 ^3/uL and 3.60 ^3/uL and 7.39 ^3/uL and 5.17 ^3/uL and 5.75 ^3/uL
  PLT: 208 ^3/uL and 214 ^3/uL and 213 ^3/uL and 246 ^3/uL and 238 ^3/uL and 251 ^3/uL and 227.00 ^3/uL and 226.00 ^3/uL and 232.00 ^3/uL and 257 ^3/uL and 308 ^3/uL and 313 ^3/uL and 248 ^3/uL and 285.00 ^3/uL and 278.00 ^3/uL
  RBC: 6.44 ^6/uL and 6.81 ^6/uL and 6.37 ^6/uL and 6.46 ^6/uL and 7.19 ^6/uL and 6.71 ^6/uL and 6.45 ^6/uL and 7.00 ^6/uL and 6.54 ^6/uL and 5.68 ^6/uL and 6.61 ^6/uL and 6.11 ^6/uL and 5.92 ^6/uL and 5.90 ^6/uL and 6.27 ^6/uL
  RET %: 0.41% and 0.33% and 0.58% and 0.27% and 0.62% and 0.43% and 0.34% and 0.48% and 0.51% (2×) and 1.07% and 0.88% and 0.83% and 0.79% and 0.86%
  WBC: 8.23 ^3/uL and 10.09 ^3/uL and 9.86 ^3/uL and 10.41 ^3/uL and 10.37 ^3/uL and 10.50 ^3/uL and 9.32 ^3/uL (2×) and 10.23 ^3/uL and 10.18 ^3/uL and 10.21 ^3/uL and 7.45 ^3/uL and 6.63 ^3/uL and 11.18 ^3/uL and 8.42 ^3/uL
[2]
  proportion of subjects with >50% reduction in wound surface area from baseline vs placebo: A larger proportion
